US6524630B2, “Use of cocoa procyanidins combined with acelylsalicyclic acid as an anti-platelet therapy” (Mars, Incorporated, priority 2000, dated 2003)
Marks after values point to notes of the source that are not given here.

What was measured:
Assay type in all cases: in vivo, human
[1] = tested on: prostacyclin (PGI2) metabolite 6-keto prostaglandin F1-alpha; assay: Enzyme immunoassay of prostacyclin metabolite in blood after treatment
Description: Blood was drawn from the subjects prior to consumption of any food. After the initial blood was drawn, the subjects were divided into four groups. One group consumed 81 mg of aspirin (acetylsalicylic acid) (Bayer pediatric aspirin). A second group consumed a high cocoa polyphenol beverage consisting of 18.75 g of procyanidin enriched cocoa powder derived from Sulawesi beans (containing 51.1 mg/g of total procyanidins, 11.2% fat, 0.092% caffeine, 1.618% theobromine) and 12.5 g of sucrose mixed with 300 ml of distilled water. A third group consumed the high cocoa procyanidin beverage and 81 mg of baby aspirin. […] The blood samples were also analyzed for changes in leukotriene, prostacyclin and thromboxane levels resulting from the four treatment regimes. […] The prostacyclin (PGI2) metabolite 6-keto prostaglandin F1-alpha was measured with Cayman enzyme immunoassay #515211, the thromboxane (TXA2) metabolite TXB2 was measured with Cayman enzyme immunoassay 519031, and leukotrienes C4, D4 and E4 were quantified using the immunoassay EA-39 from Oxford Biomedical Research. P values were calculated using the paired sample T-test. […]

[2] = tested on: thromboxane (TXA2) metabolite TXB2; assay: Enzyme immunoassay of thromboxane metabolite in blood after treatment
Description: Blood was drawn from the subjects prior to consumption of any food. After the initial blood was drawn, the subjects were divided into four groups. One group consumed 81 mg of aspirin (acetylsalicylic acid) (Bayer pediatric aspirin). A second group consumed a high cocoa polyphenol beverage consisting of 18.75 g of procyanidin enriched cocoa powder derived from Sulawesi beans (containing 51.1 mg/g of total procyanidins, 11.2% fat, 0.092% caffeine, 1.618% theobromine) and 12.5 g of sucrose mixed with 300 ml of distilled water. A third group consumed the high cocoa procyanidin beverage and 81 mg of baby aspirin. The final group consumed 81 mg of baby aspirin and a procyanidin deficient cocoa beverage consisting of 18.75 g of cocoa powder (containing 0.45 mg/g total procyanidins, 9.87% fat, 2.063% theobromine, 0.234% caffeine) and 12.5 g of sucrose mixed with 300 ml of distilled water. During the test period the subjects were permitted to consume water, caffeine-free diet soda, bagels, low fat cream cheese, and bananas. Blood was drawn from each of the subjects two hours and six hours post consumption of the treatment. Venous blood was aspirated into evacuated tubes containing 0.5 ml of 3.2% buffered sodium citrate solution.
The blood samples were also analyzed for changes in leukotriene, prostacyclin and thromboxane levels resulting from the four treatment regimes. Immunoassay procedures were conducted as described by Westcott et al, “Analysis Of 6-Keto PGF1 Alpha, 5-HETE, And LTC4 In Rat Lung: Comparison Of GM/MS, RIA and EIA”, Prostaglandins 32:857-873, 1986; Yakota et al, “Enzyme Immunoassay Of Prostanoids In Blood And Urine”, Adv. Prostgl.Thrombox. Leukot. Res. 15:33-34, 1985; and Schramm et al, “Differential Effects of Small and Large Molecular Weight Phytochemicals on Endothelial Cell Eicosanoid Secretion” J Agric Food Chem 46:1900-1905, 1998. The prostacyclin (PGI2) metabolite 6-keto prostaglandin F1-alpha was measured with Cayman enzyme immunoassay #515211, the thromboxane (TXA2) metabolite TXB2 was measured with Cayman enzyme immunoassay 519031, and leukotrienes C4, D4 and E4 were quantified using the immunoassay EA-39 from Oxford Biomedical Research. P values were calculated using the paired sample T-test. Values of p<0.05 were considered to be statistically significant.

[3] = tested on: leukotrienes C4, D4 and E4; assay: Immunoassay of leukotrienes in blood after treatment
Description: Blood was drawn from the subjects prior to consumption of any food. After the initial blood was drawn, the subjects were divided into four groups. One group consumed 81 mg of aspirin (acetylsalicylic acid) (Bayer pediatric aspirin). A second group consumed a high cocoa polyphenol beverage consisting of 18.75 g of procyanidin enriched cocoa powder derived from Sulawesi beans (containing 51.1 mg/g of total procyanidins, 11.2% fat, 0.092% caffeine, 1.618% theobromine) and 12.5 g of sucrose mixed with 300 ml of distilled water. A third group consumed the high cocoa procyanidin beverage and 81 mg of baby aspirin. The final group consumed 81 mg of baby aspirin and a procyanidin deficient cocoa beverage consisting of 18.75 g of cocoa powder (containing 0.45 mg/g total procyanidins, 9.87% fat, 2.063% theobromine, 0.234% caffeine) and 12.5 g of sucrose mixed with 300 ml of distilled water. During the test period the subjects were permitted to consume water, caffeine-free diet soda, bagels, low fat cream cheese, and bananas. Blood was drawn from each of the subjects two hours and six hours post consumption of the treatment. Venous blood was aspirated into evacuated tubes containing 0.5 ml of 3.2% buffered sodium citrate solution. The blood samples were also analyzed for changes in leukotriene, prostacyclin and thromboxane levels resulting from the four treatment regimes. Immunoassay procedures were conducted as described by Westcott et al, “Analysis Of 6-Keto PGF1 Alpha, 5-HETE, And LTC4 In Rat Lung: Comparison Of GM/MS, RIA and EIA”, Prostaglandins 32:857-873, 1986; Yakota et al, “Enzyme Immunoassay Of Prostanoids In Blood And Urine”, Adv. Prostgl.Thrombox. Leukot. Res. 15:33-34, 1985; and Schramm et al, “Differential Effects of Small and Large Molecular Weight Phytochemicals on Endothelial Cell Eicosanoid Secretion” J Agric Food Chem 46:1900-1905, 1998. The prostacyclin (PGI2) metabolite 6-keto prostaglandin F1-alpha was measured with Cayman enzyme immunoassay #515211, the thromboxane (TXA2) metabolite TXB2 was measured with Cayman enzyme immunoassay 519031, and leukotrienes C4, D4 and E4 were quantified using the immunoassay EA-39 from Oxford Biomedical Research. P values were calculated using the paired sample T-test. Values of p<0.05 were considered to be statistically significant.

[4] = tested on: activated conformation of the GPIIb/IIIa platelet receptor; assay: Ex vivo flow cytometry (PAC1) of activated GPIIb/IIIa on platelets after treatment; settings: at 6 hours compared to baseline
Description: The subjects used in the previous study also participated in the surface protein expression study. The methodology with respect to treatment regimes and collection of blood was identical to that which was outlined in the previous example. Within 10 minutes of draw, whole blood was incubated in polystyrene tubes for 5 minutes at room temperature with 10 μm HEPES buffer (pH 7.4, unstimulated control), 20 or 100 μm ADP or 20 μtm epinephrine (BioData, Horsham, Pa.) in the presence or absence of the peptide […] (Sigma, St. Louis, Mo.). After 5 minutes, samples were suspended in 1 ml HEPES buffer and 100 μm of sample were transferred to tubes containing saturating concentrations (20 μm ) each of the following fluorescent-labeled monoclonal antibodies: PAC1-fluorescein isothiocyanate (FITC), anti-CD62P-phycoerythrin (PE) and anti-CD42a-PerCP. PAC1 recognizes the activated conformation of the fibrinogen-binding receptor GPIIb-IIIa and anti-CD62P recognizes P-selectin, present on the surface of activated platelets. […] All samples were analyzed within 48 hours on a FACScan flow cytometer using […] software. […] Twenty thousand events were collected in list mode with all light-scatter and fluorescence parameters in logarithmic code. […] The platelet-dependent hemostasis data were also analyzed for statistical differences among treatment groups for each time point, baseline, 2 and 6 hour.

[5] = tested on: P-selectin (CD62P); assay: Ex vivo flow cytometry of platelet surface expression of P-selectin after treatment
Description: The subjects used in the previous study also participated in the surface protein expression study. The methodology with respect to treatment regimes and collection of blood was identical to that which was outlined in the previous example. Within 10 minutes of draw, whole blood was incubated in polystyrene tubes for 5 minutes at room temperature with 10 μm HEPES buffer (pH 7.4, unstimulated control), 20 or 100 μm ADP or 20 μtm epinephrine (BioData, Horsham, Pa.) in the presence or absence of the peptide […] (Sigma, St. Louis, Mo.). After 5 minutes, samples were suspended in 1 ml HEPES buffer and 100 μm of sample were transferred to tubes containing saturating concentrations (20 μm ) each of the following fluorescent-labeled monoclonal antibodies: PAC1-fluorescein isothiocyanate (FITC), anti-CD62P-phycoerythrin (PE) and anti-CD42a-PerCP. PAC1 recognizes the activated conformation of the fibrinogen-binding receptor GPIIb-IIIa and anti-CD62P recognizes P-selectin, present on the surface of activated platelets. Anti-CD42a recognizes GP1b-1X, which is on the surface of both activated and resting platelets. Mouse IgG, FITC and mouse IgG, PE were used as isotype controls. The […]-peptide was used to block binding of the PAC1 antibody to platelets and thus set the negative control marker on the flow cytometer. Antibodies and isotype controls were purchased from Becton Dickinson Immunocytometry Systems, Inc., San Jose, Calif. Whole blood samples in the presence and absence of the agonists ADP and epinephrine were incubated with monoclonal antibodies or isotype control for 20 minutes in the dark at room temperature. Samples were then fixed in filtered 1% paraformaldehyde (pH 7.2) and stored in the dark at 2-8° C. All samples were analyzed within 48 hours on a FACScan flow cytometer using […] software. The flow cytometer performance was verified using 1, 2 and 10 μm calibration beads (Becton Dickinson Immunocytometry Systems, Inc., San Jose, Calif. and Flow Cytometry Systems, Research Triangle Park, N.C.). Twenty thousand events were collected in list mode with all light-scatter and fluorescence parameters in logarithmic code. Platelets were gated on the basis of […] CD42a expression. Activated platelets were defined as the percentage of CD42a positive events coexpressing the activated conformation of GPIIb-IIa or P-selectin. Platelet microparticles were defined as the percentage of CD42a positive events less than 2 μm in size. To perform the statistical analysis of the results, Friedman's repeated measures ANOVA on ranks (RM ANOVA on ranks) was used to compare the baseline, 2 and 6 hour results in each treatment group. Tukey's all pairwise comparison was used for post hoc multiple comparisons. […] The platelet-dependent hemostasis data were also analyzed for statistical differences among treatment groups for each time point, baseline, 2 and 6 hour.

CC(=O)Oc1ccccc1C(=O)O [Aspirin, acetylsalicylic acid]
Prostacyclin ([1]; 2 hrs post consumption): 103 | Prostacyclin ([1]; 6 hrs post consumption): 104 | TXB2/PG12 ratio ([2]; 2 hrs post consumption): 89 | Thromboxane ([2]; 2 hrs post consumption): 91 | TXB2/PG12 ratio ([2]; 6 hrs post consumption): 86 | Thromboxane ([2]; 6 hrs post consumption): 89 | LT/PG12 ratio ([3]; 2 hrs post consumption): 99 | Leukotrienes ([3]; 2 hrs post consumption): 101 | LT/PG12 ratio ([3]; 6 hrs post consumption): 100 | Leukotrienes ([3]; 6 hrs post consumption): 100 | epinephrine-induced GPIIb/IIIa expression [4]: suppressed | % CD62 + Platelets, Median ([5]; 20 μM ADP, 0 Hour (before consumption)): 64.5% | % CD62 + Platelets, Median ([5]; 20 μM ADP, 2 Hour): 60.3% | % CD62 + Platelets, Median ([5]; 20 μM ADP, 6 Hour): 60.8% | % CD62 + Platelets, Median ([5]; 20 μM Epinephrine, 0 Hour (before consumption)): 7.9% | % CD62 + Platelets, Median ([5]; 20 μM Epinephrine, 2 Hour): 6.2% | % CD62 + Platelets, Median ([5]; 20 μM Epinephrine, 6 Hour): 4.7* % | % CD62 + Platelets, Median ([5]; Unstimulated, 0 Hour (before consumption)): 1.4% | % CD62 + Platelets, Median ([5]; Unstimulated, 2 Hour): 1.5% | % CD62 + Platelets, Median ([5]; Unstimulated, 6 Hour): 1.3% | epinephrine-induced P-selectin expression ([5]; at 6 hours compared to baseline, in words): suppressed
